Results on 9 compounds are retold here after PMC6332510, “Leishmanicidal Activity of (+)-Phyllanthidine and the Phytochemical Profile of Margaritaria nobilis (Phyllanthaceae)” (Molecules, 2015).

Structures are written as SMILES. Several values for one entry are separate records, joined by “and”; a condition that tells them apart may be missing. Equal entries are not always repeated. Entries after “also recorded” stand apart in the source; their conditions may differ.

In one data set the test system is L. mexicana. More on the design: method as in doi:10.1080/13880200600878361. The settings on record: cited from earlier work.
A further data set has as its system L. major-infected cell. Also on record: method as in PMID 16143535. Particulars: compared with non-infected conditions; cited from earlier work.
In data set [1] the test system is Leishmania (L.) amazonensis amastigotes. As to the kind of experiment: Anti-amastigote assay in infected peritoneal macrophages. It is filed as cell-based. Particulars: for parasite (amastigote) reduction: infected macrophages, vs untreated cells. On the procedure:
(§1) Macrophages were obtained from the peritoneal cavity of male mouse BALB/c (Mus musculus), and the animals were sacrificed in a CO2 chamber (Insight®). The material was harvested with Hank’s solution, concentrated by centrifugation at 4 °C, cultured in a 24-well plate and incubated in an atmosphere containing 5% CO2 at 37 °C for 1 h. After that, non-adherent cells were washed with DMEM and incubated for 24 h with DMEM medium supplemented with 10% FBS. The experimental protocol was approved by the Committee on the Ethics of Animal Experiments (CEPAE, grant number 046-2015) of Universidade Federal do Pará.
Adherent peritoneal macrophages were infected with Leishmania (L.) amazonensis promastigotes (stationary growth phase) at a parasite/macrophage ratio of 10:1 and incubated for 3 h at 37 °C and 5% CO2. After 3 h, free parasites were removed by washing with PBS pH 7.2, and the cultures were treated with 50 and 100 µg/mL (+)-phyllanthidine for 48 h post infection, without replacing the culture medium. The cells were washed with PBS pH 7.2, fixed with methanol and stained with Giemsa. The number of parasites was determined by examining three cover slips for each treatment. At least 100 infected macrophages were counted, and the results were expressed as the survival percentage, in comparison with controls. Amphotericin B (0.5 µg/mL) was used as a positive control. The selectivity index (SI) was calculated as the ratio between the cytotoxicity and antiparasitic activity against intracellular amastigotes.

Data set [2] concerns Leishmania (L.) amazonensis promastigotes. As to the kind of experiment: Anti-promastigote assay (MTT). It is filed as cell-based. On the procedure:
Promastigotes from Leishmania (L.) amazonensis (MHOM/BR/26361) were obtained in NNN (Neal, Novy and Nicolle) medium from the Instituto Evandro Chagas and subsequently maintained in RPMI medium supplemented with 10% heat-inactivated fetal bovine serum (FBS) at 25 °C.
Leishmania (L.) amazonensis promastigotes (10^6 parasites/mL) were seeded in 24-well plates with RPMI medium without phenol, the medium was supplemented with 10% FBS, and the cells were then treated with different concentrations of (+)-phyllanthidine (10, 20, 50, 100 and 200 µg/mL). The cultures were incubated at 25 °C for 4 days without medium replacement. Every 24 h, aliquots were harvested and promastigotes were incubated with 20 µL of MTT (2 µg/mL) for 4 h. Then, 20 µL of DMSO was added to the wells, and the plate was allowed to shake for 30 min for complete solubilization. One known anti-leishmanial drug (Amphotericin B—0.5 µg/mL) was used as a positive control.

Data set [3] has the same test system. As to the kind of experiment: Ultrastructural assay (SEM and TEM). The class given is cell-based. On the procedure:
Scanning Electron Microscopy (SEM): Promastigotes were treated with 50 and 100 µg/mL of (+)-phyllanthidine for 4 days, and they were fixed with paraformaldehyde (4%) and glutaraldehyde (2.5%) in cacodylate buffer (0.1 M) for one hour. The cells were post-fixed in osmium tetroxide (1%), dehydrated in graded ethanol, brought to their critical point with CO2, coated with gold and analyzed in a Zeiss LEO 1450VP SEM (Göttingen, Germany).
Transmission Electron Microscopy (TEM): Promastigotes treated with 50 and 100 µg/mL (+)-phyllanthidine for 4 days were fixed with glutaraldehyde (2.5%) and paraformaldehyde (4%) in cacodylate buffer (0.1 M) for one hour. The parasites were post-fixed in an osmium tetroxide solution (1%) and ferrocyanide (0.8%), dehydrated in graded acetone and embedded in epoxy resin. Ultrathin sections were obtained, stained with uranyl acetate/lead citrate and examined with a Zeiss 906E TEM (Göttingen, Germany).

The next data set relates to peritoneal macrophages. As to the kind of experiment: Cytotoxicity assay of host cells (MTT). It is filed as cell-based, mouse BALB/c (Mus musculus). The settings on record: 10-200 µg/mL, 48 h. On the procedure:
as §1
(§2) MTT is a tetrazolium salt that is converted into blue formazan crystals that are insoluble in water after cleavage by mitochondrial dehydrogenases, which causes them to accumulate in viable cells. The procedure was performed according to Fotakis and Timbrell (2006), with some modifications. Macrophages treated with 10, 20, 50, 100 and 200 µg/mL of (+)-phyllanthidine for 48 h and untreated cells were incubated with MTT (0.5 mg/mL) dissolved in phosphate-buffered saline (PBS), pH 7.2 for 3 h in a humidified atmosphere containing 5% CO2 at 37 °C. […] The absorbance of each solution was recorded at an optical density (OD) of 570 nm using a spectrophotometer (Bio-Rad Model 450 Microplate Reader). The assay specificity was determined by using non-viable cells treated with 10% formaldehyde in PBS. […]

Data set [4] is described as follows: Cytotoxicity assay of host cells (MTT). Particulars: male, BALB/c, mouse, peritoneal macrophages. The class given is cell-based, mouse BALB/c (Mus musculus). On the procedure:
as §1, §2

Data set [5] relates to L. (V.) peruviana promastigote forms. Also on record: method as in PMID 19489596. Particulars: cited from earlier work.
For data set [6], the system named is L. (V) braziliensis promastigote forms. More on the design: method as in PMID 19489596. Particulars: cited from earlier work.
Data set [7] deals with Leishmania infected-macrophages. More on the design: method as in PMID 18164321. Particulars: 250 μM; cited from earlier work.
For another data set, the system named is Leishmania amazonensis. Also on record: method as in PMID 19748254. The settings on record: cited from earlier work.
The test system of a further data set is L. braziliensis. Also on record: method as in PMID 19748254. Particulars: cited from earlier work.
Data set [8] deals with L. (L.) amazonensis promastigote. The settings on record: 72 h of treatment; cited from earlier work.
The test system of data set [9] is L. (L.) amazonensis amastigote form. Also on record: method as in PMID 20661748. The settings on record: 79 μM, 72 h; cited from earlier work.

The term IC50 denotes the concentration that inhibits the measured activity by half. In the case of `COC(=O)c1cc(O)c(O)c(O)c1` [Methyl galate, methyl gallate], the IC50 with L. mexicana was 33.6 µM.
Consider `O=C(O[C@@H]1O[C@@H]2COC(=O)c3cc(O)c(O)c(O)c3-c3c(cc(O)c(O)c3O)C(=O)O[C@H]([C@H]1O)[C@@H]2O)c1cc(O)c(O)c(O)c1` [Corilagin, corilagin], for which, in the data set on L. major-infected cell, the “iNOS and cytokine mRNA levels” value is “capable of enhancing the iNOS and cytokine mRNA levels”.
The inhibition is the change of the read-out against control, counted positive when it falls. As usually defined, the CC50 is the concentration at which the toxic effect on the cells reaches its halfway point. For `O=C1C=C2C=CC3CC2(O1)C1CCCCN1O3` (single isomer, unassigned; (+)) [(+)-phyllanthidine], the “parasite (amastigote) reduction” value in data set [1] (50 μg/mL, 48 h) was found to be 75.5%; in data set [1] (100 μg/mL, 48 h), 83.96%. For the same compound, the IC50 in [1] (Leishmania, Peritoneal macrophage, 48 h of treatment) is 49.1 µg/mL and 210 µM; in data set [2] (Leishmania, 96 h, 96 h of treatment), 82.4 µg/mL and 353 µM. The “selectivity index (SI)” value in data set [1] (ratio between cytotoxicity (macrophages) and activity against intracellular amastigotes) was determined as 25.08. Besides, the inhibition at 100 µg/mL in data set [2] (Leishmania, 100 µg/mL, 96 h of treatment, read-out: inhibition of promastigote growth) was determined as 67.7%. In addition, the “promastigote ultrastructural changes (TEM)” value in data set [3] (50 µg/mL, 96 h) is on record as “kinetoplast swelling”; in data set [3] (100 µg/mL), “increase in the number of acidocalcisome-like structures”. The “cytotoxic effect on macrophages” value in the data set with peritoneal macrophages is given as “no cytotoxic effects on macrophages; also recorded: No cytotoxic effect was detected”. Also, the CC50 at 48 h in data set [4] was > 200 µg/mL.
Consider `O=c1c(O)c(-c2ccc(O)cc2)oc2cc(O)cc(O)c12` [Kaempferol, kaempferol], for which the leishmanicidal activity result in [5] and in data set [6] was “showed leishmanicidal activity” in each case.
As to `C[C@@H]1[C@H](O)[C@@H](C)/C=C/C=C/C=C/C=C/C=C/C=C/C=C/[C@H](O[C@@H]2O[C@H](C)[C@@H](O)[C@H](N)[C@@H]2O)C[C@@H]2O[C@](O)(C[C@@H](O)C[C@@H](O)[C@H](O)CC[C@@H](O)C[C@@H](O)CC(=O)O[C@H]1C)C[C@H](O)[C@H]2C(=O)O` [Amphotericin B, reference compound], the “amastigote reduction (positive control)” value in [1] (0.5 µg/mL (0.54 µM), 48 h) is reported as 90.42%. The “reduction of promastigotes (positive control)” value in data set [2] (0.5 μg/mL (0.54 µM), 96 h) is 100%.
On to `CCCCCCCCCCCCCCCCOP(=O)([O-])OCC[N+](C)(C)C` [miltefosine, reference compound], for which the IC50 in the data set on L. mexicana was 0.5 µM.
Regarding `O=C(O)c1cc(O)c(O)c(O)c1` [gallic acid], in data set [7], the NO-production entry is “modest NO-production” and the parasite viability entry is given as “did not reduce parasite viability”.
`C=C(C)[C@@H]1CC[C@]2(C(=O)O)CC[C@]3(C)[C@H](CC[C@@H]4[C@@]5(C)CC[C@H](O)C(C)(C)[C@@H]5CC[C@]43C)[C@@H]12` [betulinic acid]: the antiprotozoal activity result with Leishmania amazonensis and with L. braziliensis was “No antiprotozoal activity” in each case.
Turning to `CCC(C)C(=O)NC1CCC(=O)N(CCc2ccccc2)C1=O` (centres unmarked) [julocrotine], the reduction in promastigotes in data set [8] is 54%. The “reduction of amastigote form” value in [9] is 80%.
